# pEC50: −log10 of the molar value.
# Experiments:
# [1] = 2,2-diphenyl-1-picrylhydrazyl (DPPH) assay, cell-free antioxidant potential; settings: test compound 0.05 mM, absorbance at 517 nm
# Protocol: The stable radical DPPH (Blois, 1958) was dissolved in methanol to a final concentration of 0.05 mM. 1 mL of DPPH solution was added to 2 μL of each test compound dissolved in DMSO. The final concentration of each test compound was 0.05 mM. Samples were inverted several times and allowed to incubate at room temperature for 10 minutes. Samples were then aliquoted to white 96-well solid-bottom dishes (Corning) and absorbance at 517 nm was recorded using a TECAN M200 plate reader. All values were normalized to background (methanol only). The experiment was repeated twice. Results within each trial normalized to DMSO (=1.0), then averaged across trials.
# HT-1080 cells [2] = test: HT-1080 cell proliferation (Vi-Cell); assay type: cell-based, human; settings: over 48 hours
# Protocol: (§1) Cell viability was typically assessed in 384-well format by Alamar Blue (Invitrogen) fluorescence (ex/em 530/590) measured on a Victor3 platereader (Perkin Elmer, Waltham, Mass.). In some experiments, Trypan Blue dye exclusion counting was performed using an automated cell counter (ViCell, Beckman-Coulter Inc., Brea, Calif.). Cell viability in test conditions is reported as a percentage relative to the negative control treatment.
# [3] = system: erastin (10 μM)-treated HT-1080 cells; test: Inhibition of death in erastin (10 μM)-treated HT-1080 cells, viability by Alamar Blue; assay type: cell-based, human; settings: inhibition of death in erastin (10 μM)-treated HT-1080 cells; Alamar Blue; from dose response curves
# Protocol: as §1
# Flow cytometry data was analyzed using FloJo (9.3.2, Tree Star, Inc., Ashland, Oreg.). Chemical structures were drawn using ChemDraw Ultra (Cambridgesoft, Cambridge, Mass.). Computational determination of log P (Slog P function) was performed using MOE 2010.10 (Chemical Computing Group, Montreal, […].). Viability data was analyzed using Excel (Microsoft Corp., […].). Summary data and heatmaps were generated using R. Dose-response curves were computed by 4-parameter logistic regression in Prism 5.0c (GraphPad Software). Images were manipulated using Photoshop CS4 and Illustrator CS4 (Adobe, San Jose, Calif.).
# The ability of various compounds disclosed herein to inhibit death in erastin (10 μM)-treated HT-1080 cells were tested. Cell viability was assessed by Alamar Blue. EC50 values (nM) were computed from dose response curves.
# [4] = system: ROS production in HT-1080 cells; test: Analysis of reactive oxygen species production by flow cytometry (H2DCFDA, C11-BODIPY, MitoSOX); assay type: cell-based, human; settings: erastin 10 μM; HT-1080 cells; H2DCFDA, C11-BODIPY
# Protocol: The day before the experiment, 200,000 cells/well were seeded in 6-well dishes (Corning Inc., Corning, N.Y.). […] Data was collected from the FL1 (H2DCFDA, C11-BODIPY) or FL2 channel (MitoSOX). A minimum of 10,000 cells were analyzed per condition.
# HT-1080 cells [5] = test: LOC library screening and confirmation: inhibition of erastin-induced ferroptosis; assay type: cell-based, human; settings: LOC library screening and confirmation studies, read-out: EC50, inhibitor of erastin-induced ferroptosis
# Protocol: The LOC library was screened over the course of several days. 384-well glass bottom assay plates (Corning) were seeded with 1,000 HT-1080 cells/well the day before the experiment. The day of the experiment, LOC mother plates were thawed at room temperature for 1 hour and spun at 1000 rpm for 1 minute prior to use. Using a BioMek liquid handing robot, 2 μL of compound solution from each LOC library mother plate was transferred to a 384 deep well “daughter” plate (Grenier) containing 148 μL of cell culture media. The cell culture media in each assay plate was then removed by flicking and, using a BioMek FX, replaced with 36 μL of growth media containing erastin (5 μM final). To this was added 4 μL of the drug solution from the daughter plate, for a final screening concentration of 5.3 μg/mL for each LOC library compound. 4 wells containing DMSO alone (no erastin), 4 wells containing 100 μM DFO alone (no erastin), 4 wells containing erastin plus DMSO, and 4 wells containing erastin plus 100 μM DFO (positive control) were included as controls on each plate. Each drug daughter plate was aliquoted separately to duplicate assay plates. Plates were then spun briefly (1000 rpm, 5 seconds) and returned to the 37° C. tissue culture incubator. 24 hours later, cell viability was assessed by Alamar Blue as described above.
# Candidate hits from the LOC library screen were identified. […]
# HT-1080 cells [6] = test: Modulatory profile of lethal small molecules (effect of Fer-1 on lethality of various compounds); assay type: cell-based, human; settings: resynthesized Fer-1 0.5 μM
# Protocol: The modulatory effect (Me) for drug-drug interactions was computed as follows. First, plate-based background correction was performed using Alamar Blue values from empty (cell-free) wells included on each plate. Next, within each experiment, 100% viability is determined as the average Alamar Blue score for cells treated with modulator=DMSO and lethal=DMSO, and all Alamar Blue values were scaled from 0 to 1 with the DMSO×DMSO condition=1. The individual effects of each modulator and lethal (e.g. in the presence of DMSO) at all tested doses were then ascertained. […] Next, BExp was compared to the actual observed viability. For each informative drug-drug interaction (i.e. modulator=“DFO”, modulator concentration=100 μM, lethal=Erastin) the modulatory effect (Me) was equivalent to the maximum observed deviation, positive or negative, from BExp. By default, Me in DMSO-treated cells is equal to 0. This formula was empirically determined to provide a useful measure of modulation that is robust to differences in the shapes of individual dose-response curves for different inhibitors and lethal molecules. Me values for each inhibitor-lethal drug combination were hierarchically clustered and plotted as a heatmap using the heatmaps.2 function of the gplots library in R. […]
compound,measurement,setting,value
"CCOC(=O)c1ccc(NC2CCCCC2)c(N)c1 [Fer-1, ferrostatin-1]",intrinsic antioxidant capability (DPPH),[1],"readily oxidized the stable radical 2,2-diphenyl-1-picrylhydrazyl (DPPH)"
same,HT-1080 cell proliferation,HT-1080 cells [2],did not inhibit ERK phosphorylation or arrest the proliferation of HT-1080 cells
same,pEC50,[3],7.02
same,effect on erastin-induced ROS accumulation,[4],prevent erastin-induced accumulation of cytosolic and lipid ROS
same,pEC50,HT-1080 cells [5],7.22
same,specificity of death inhibition against various lethal compounds,HT-1080 cells [6],"specifically inhibited RSL-induced death, but not cell death induced by other oxidative lethal compounds and apoptosis-inducing agents"
